# Biological target: PD-1/PD-L1 (Homo sapiens (Human), UniProt Q9NZQ7)
# Experiment: PD-1/PD-L1 Homogeneous Time-Resolved Fluorescence (HTRF) Binding Assay
# Conditions: recombinant human PD-1 (3 nM) and PD-L1 (10 nM), 25° C., PBS pH 7.4
# Summary of the method: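 Fc-tagged human PD-1 (25-167, 3 nM) and His-tagged PD-L1 (19-238, 10 nM) preincubated with inhibitor 40 min in PBS pH 7.4, 0.05% Tween-20, 0.1% BSA, 1% DMSO, 25 °C. Binding detected by HTRF (Eu anti-IgG/APC anti-His, 665/620 nm) after 60 min; IC50 from percent control activity.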
# PD-1/PD-L1, sequence (Q9NZQ7 19-238): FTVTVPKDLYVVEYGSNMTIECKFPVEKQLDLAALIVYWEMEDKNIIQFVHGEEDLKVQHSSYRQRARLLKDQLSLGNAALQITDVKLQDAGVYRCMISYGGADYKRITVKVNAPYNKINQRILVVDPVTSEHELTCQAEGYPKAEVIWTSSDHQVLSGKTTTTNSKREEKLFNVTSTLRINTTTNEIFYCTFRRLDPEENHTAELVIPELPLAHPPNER
row,SMILES,IC50 [nM]
1,"Cc1c(Nc2nccc3cc(CN4CC[C@@H](C(=O)O)C4)cnc23)cccc1-c1cccc(-c2nc3cc(CN4CC[C@@H](O)C4)cc(C#N)c3o2)c1C [Example 141, (R)-1-((8-(3′-(7-cyano-5-(((R)-3-hydroxypyrrolidin-1-yl)methyl)benzo[d]oxazol-2-yl)-2,2′-dimethylbiphenyl-3-ylamino)-1,7-naphthyridin-3-yl)methyl)pyrrolidine-3-carboxylic acid]",≤ 10
2,"CCN1CCc2c(nc(C(=O)Nc3cccc(-c4cccc(-c5nc6cc(CN7CC[C@@H](C(=O)O)C7)cc(C#N)c6o5)c4C)c3Cl)n2C)C1 [Example 143, (R)-1-((2-(2′-chloro-3′-(5-ethyl-1-methyl-4,5,6,7-tetrahydro-1H-imidazo[4,5-c]pyridine-2-carboxamido)-2-methyl-[1,1′-biphenyl]-3-yl)-7-cyanobenzo[d]oxazol-5-yl)methyl)pyrrolidine-3-carboxylic acid]",≤ 10
3,"Cc1c(Nc2nccc3c(CN4CC[C@H](O)C4)ccnc23)cccc1-c1cccc(-c2nc3cc(CN4CC[C@H](C(=O)O)C4)cc(C#N)c3o2)c1C [Example 144, (S)-1-((7-cyano-2-(3′-((4-(((S)-3-hydroxypyrrolidin-1-yl)methyl)-1,7-naphthyridin-8-yl)amino)-2,2′-dimethyl-[1,1′-biphenyl]-3-yl)benzo[d]oxazol-5-yl)methyl)pyrrolidine-3-carboxylic acid]",≤ 10
4,"Cc1c(Nc2nccc3c(CN4CC[C@H](O)C4)ccnc23)cccc1-c1cccc(-c2nc3cc(CN4CC[C@@H](C(=O)O)C4)cc(C#N)c3o2)c1C [Example 145, (R)-1-((7-cyano-2-(3′-((4-(((S)-3-hydroxypyrrolidin-1-yl)methyl)-1,7-naphthyridin-8-yl)amino)-2,2′-dimethyl-[1,1′-biphenyl]-3-yl)benzo[d]oxazol-5-yl)methyl)pyrrolidine-3-carboxylic acid]",≤ 10
5,"Cc1c(Nc2nccc3cc(CNC[C@H](C)O)cnc23)cccc1-c1cccc(-c2nc3cc(CN4CC[C@@H](C(=O)O)C4)cc(C#N)c3o2)c1C [Example 146, (R)-1-((7-cyano-2-(3′-((3-((((S)-2-hydroxypropyl)amino)methyl)-1,7-naphthyridin-8-yl)amino)-2,2′-dimethyl-[1,1′-biphenyl]-3-yl)benzo[d]oxazol-5-yl)methyl)pyrrolidine-3-carboxylic acid]",≤ 10
6,"Cc1c(Nc2nccn3c(CN4CC[C@H](O)C4)cnc23)cccc1-c1cccc(-c2nc3cc(CN4CC[C@H](C(=O)O)C4)cc(C#N)c3o2)c1C [Example 152, (S)-1-((7-cyano-2-(3′-(3-(((S)-3-hydroxypyrrolidin-1-yl)methyl)imidazo[1,2-a]pyrazin-8-ylamino)-2,2′-dimethylbiphenyl-3-yl)benzo[d]oxazol-5-yl)methyl)pyrrolidine-3-carboxylic acid]",≤ 10
7,"Cc1nc(CN2CC[C@H](O)C2)cnc1OCc1cccc(-c2cccc(-c3nc4cc(CN5CCC(C(=O)O)C5)cc(Cl)c4o3)c2C)c1Cl (stereo partly drawn) [Example 153, 1-((7-chloro-2-(2′-chloro-3′-((5-(((S)-3-hydroxypyrrolidin-1-yl)methyl)-3-methylpyrazin-2-yloxy)methyl)-2-methylbiphenyl-3-yl)benzo[d]oxazol-5-yl)methyl)pyrrolidine-3-carboxylic acid]",≤ 10
8,"Cc1c(-c2nc3cc(CN4CCC(C(=O)O)CC4)cc(C#N)c3o2)cccc1-c1cccc(NC(=O)c2nc3c(n2C)CCNC3)c1Cl [Example 154, 1-((2-(2′-chloro-2-methyl-3′-(1-methyl-4,5,6,7-tetrahydro-1H-imidazo[4,5-c]pyridine-2-carboxamido)biphenyl-3-yl)-7-cyanobenzo[d]oxazol-5-yl)methyl)piperidine-4-carboxylic acid]",≤ 10
9,"Cc1c(-c2nc3cc(CN4CCC(C(=O)O)CC4)cc(C#N)c3o2)cccc1-c1cccc(NC(=O)c2nc3c(n2C)CCN(C[C@@H](C)O)C3)c1Cl [Example 155, (R)-1-((2-(2′-chloro-3′-(5-(2-hydroxypropyl)-1-methyl-4,5,6,7-tetrahydro-1H-imidazo[4,5-c]pyridine-2-carboxamido)-2-methylbiphenyl-3-yl)-7-cyanobenzo[d]oxazol-5-yl)methyl)piperidine-4-carboxylic acid]",≤ 10
10,"Cc1c(-c2nc3cc(CN4CCC(C(=O)O)CC4)cc(C#N)c3o2)cccc1-c1cccc(NC(=O)c2nc3c(n2C)CCN(CCO)C3)c1Cl [Example 156, 1-((2-(2′-chloro-3′-(5-(2-hydroxyethyl)-1-methyl-4,5,6,7-tetrahydro-1H-imidazo[4,5-c]pyridine-2-carboxamido)-2-methylbiphenyl-3-yl)-7-cyanobenzo[d]oxazol-5-yl)methyl)piperidine-4-carboxylic acid]",≤ 10
11,"Cc1c(-c2nc3cc(CN4CC[C@@H](C(=O)O)C4)cc(C#N)c3o2)cccc1-c1cccc(NC(=O)c2nc3c(n2C)CC(C)N(C)C3)c1Cl (stereo partly drawn) [Example 160, (3R)-1-((2-(2′-chloro-2-methyl-3′-(1,5,6-trimethyl-4,5,6,7-tetrahydro-1H-imidazo[4,5-c]pyridine-2-carboxamido)biphenyl-3-yl)-7-cyanobenzo[d]oxazol-5-yl)methyl)pyrrolidine-3-carboxylic acid]",≤ 10

# Other lines, results leading:
row,IC50 [nM],SMILES
1,≤ 10,"CCN1CCc2c(nc(C(=O)Nc3cccc(-c4cccc(-c5nc6cc(CN7CC[C@H](C(=O)O)C7)cc(C#N)c6o5)c4C)c3Cl)n2C)C1 [Example 142, (S)-1-((2-(2′-chloro-3′-(5-ethyl-1-methyl-4,5,6,7-tetrahydro-1H-imidazo[4,5-c]pyridine-2-carboxamido)-2-methyl-[1,1′-biphenyl]-3-yl)-7-cyanobenzo[d]oxazol-5-yl)methyl)pyrrolidine-3-carboxylic acid]"
2,≤ 10,"Cc1c(Nc2nccc3cc(CNC[C@@H](C)O)cnc23)cccc1-c1cccc(-c2nc3cc(CN4CC[C@@H](C(=O)O)C4)cc(C#N)c3o2)c1C [Example 147, (R)-1-((7-cyano-2-(3′-((3-((((R)-2-hydroxypropyl)amino)methyl)-1,7-naphthyridin-8-yl)amino)-2,2′-dimethyl-[1,1′-biphenyl]-3-yl)benzo[d]oxazol-5-yl)methyl)pyrrolidine-3-carboxylic acid]"
3,≤ 10,"Cc1c(COc2cc(OCc3cncc(C#N)c3)c(CN3CC[C@@H](O)C3)cc2Cl)cccc1-c1cccc(-c2nc3cc(CN4CC[C@@H](C(=O)O)C4)cc(Cl)c3o2)c1C [Example 148, (R)-1-((7-chloro-2-(3′-((2-chloro-5-((5-cyanopyridin-3-yl)methoxy)-4-(((R)-3-hydroxypyrrolidin-1-yl)methyl)phenoxy)methyl)-2,2′-dimethyl-[1,1′-biphenyl]-3-yl)benzo[d]oxazol-5-yl)methyl)pyrrolidine-3-carboxylic acid]"
4,10 to 100,"Cc1c(COc2cc(OCc3cncc(C#N)c3)c(CN3CCCC[C@H]3C(=O)O)cc2Cl)cccc1-c1cccc(-c2nc3cc(CN4CC[C@@H](C(=O)O)C4)cc(Cl)c3o2)c1C [Example 149, (S)-1-(4-((3′-(5-(((R)-3-carboxypyrrolidin-1-yl)methyl)-7-chlorobenzo[d]oxazol-2-yl)-2,2′-dimethyl-[1,1′-biphenyl]-3-yl)methoxy)-5-chloro-2-((5-cyanopyridin-3-yl)methoxy)benzyl)piperidine-2-carboxylic acid]"
5,10 to 100,"Cc1c(COc2cc(OCc3cncc(C#N)c3)c(CNCCO)cc2Cl)cccc1-c1cccc(-c2nc3cc(CN4CC[C@@H](C(=O)O)C4)cc(Cl)c3o2)c1C [Example 150, (R)-1-((7-chloro-2-(3′-((2-chloro-5-((5-cyanopyridin-3-yl)methoxy)-4-(((2-hydroxyethyl)amino)methyl)phenoxy)methyl)-2,2′-dimethyl-[1,1′-biphenyl]-3-yl)benzo[d]oxazol-5-yl)methyl)pyrrolidine-3-carboxylic acid]"
6,≤ 10,"Cc1c(-c2nc3cc(CN4CC[C@@H](O)C4)cc(Cl)c3o2)cccc1-c1cccc(NC(=O)c2cc(CN3CC[C@@H](C(=O)O)C3)cn(C)c2=O)c1Cl [Example 151, (R)-1-((5-(2-chloro-3′-(7-chloro-5-(((R)-3-hydroxypyrrolidin-1-yl)methyl)benzo[d]oxazol-2-yl)-2′-methylbiphenyl-3-ylcarbamoyl)-1-methyl-6-oxo-1,6-dihydropyridin-3-yl)methyl)pyrrolidine-3-carboxylic acid]"
7,≤ 10,"Cc1c(-c2nc3cc(CN4CC[C@@](C)(C(=O)O)C4)cc(C#N)c3o2)cccc1-c1cccc(NC(=O)c2nc3c(n2C)CCN(C[C@@H](C)O)C3)c1Cl [Example 157, (R)-1-((2-(2′-chloro-3′-(5-((R)-2-hydroxypropyl)-1-methyl-4,5,6,7-tetrahydro-1H-imidazo[4,5-c]pyridine-2-carboxamido)-2-methylbiphenyl-3-yl)-7-cyanobenzo[d]oxazol-5-yl)methyl)-3-methylpyrrolidine-3-carboxylic acid]"
8,≤ 10,"Cc1c(-c2nc3cc(CN4CC[C@@](C)(C(=O)O)C4)cc(C#N)c3o2)cccc1-c1cccc(NC(=O)c2nc3c(n2C)CN(C)C3)c1Cl [Example 158, (R)-1-((2-(2′-chloro-3′-(1,5-dimethyl-1,4,5,6-tetrahydropyrrolo[3,4-d]imidazole-2-carboxamido)-2-methylbiphenyl-3-yl)-7-cyanobenzo[d]oxazol-5-yl)methyl)-3-methyl pyrrolidine-3-carboxylic acid]"
9,≤ 10,"Cc1c(-c2nc3cc(CN4CC[C@@H](C(=O)O)C4)cc(C#N)c3o2)cccc1-c1cccc(NC(=O)c2nc3c(n2C)CC(C)NC3)c1Cl (stereo partly drawn) [Example 159, (3R)-1-((2-(2′-chloro-3′-(1,6-dimethyl-4,5,6,7-tetrahydro-1H-imidazo[4,5-c]pyridine-2-carboxamido)-2-methylbiphenyl-3-yl)-7-cyanobenzo[d]oxazol-5-yl)methyl)pyrrolidine-3-carboxylic acid]"
